Measurements from patent US5932619A, “Method for preventing sexually transmitted diseases” (Rush-Presbyterian, St. Luke's Medical Center, priority 1997, dated 1999).
Converted amounts (≈) assume the structure as drawn. “Also recorded” adds a separate entry of the source.

Key:
[1] = tested on: HIV-1; experiment: Viral binding inhibition assay (syncytia formation in MT2 cells); format: cell-based, HIV-1 (strain III)
Method: Cultures of MT2 cells (plated in 96-well cell culture plates at about 10,000 cells per well) were grown in a RPMI 1640 medium (Gibco, cat. no. 320-1867AG) which was supplemented with 10 percent fetal bovine serum, 100 I.U./ml penicillin, 100 μg/ml streptomycin, 20 μg/ml gentamicin, and 25 mM HEPES.
The resulting cultures were incubated at 37° C. […] The cultures were then scored microscopically for syncytia formation. […] Data are expressed as percent of a control value (no added test agent) viral titer and plotted as a function of concentration of the test agent. lC50 values (concentration of agent causing 50 percent inhibition) were calculated from the plots of concentration versus viral titer using curve-fitting software.

[2] = tested on: spermatozoa; format: cell-based; conditions: concentrations as high as 20 mg/ml
[3] = tested on: Chlamydia trachomatis (serotype E/UW-5/CS); experiment: Chlamydia multiplication assay in HeLa monolayers; format: cell-based
Method: This example illustrates the inhibitory effect of several of the inhibitory agents of this invention on Chlamydia trachomatis using a multiplication assay. Immediately before the assay, cryopreserved Chlamydia trachomatis (serotype E/UW-5/CS) samples were quickly thawed at 37° C. and suspended in Hank's balanced salt solution (HBSS) by mild sonication. Serial 1:10 dilutions (10^-1 to 10^-7) of the bacterial suspension were made. HeLa monolayers on coverslips were inoculated with 100 μl of the chlamydia samples in the presence (0.1, 1.0, 10, 100, and 1000 μg/ml) or absence of the test agents. After one hour, the monolayers were washed with HBSS to remove free chlamydia and test agent (if present) and then incubated for 48 hours in HBSS at 37° C.
After the medium was removed, the HeLa monolayer samples were fixed in methanol and washed. The cells were then treated with Kallsted Chlamydia Culture Confirmation fluorescein-conjugated Monoclonal Antibody for 30 minutes at room temperature in a dark, humidified chamber. The cells were then washed with water and covered with coverslip using a mounting medium. Inclusions due to chlamydia infection were visualized with a fluorescent microscope as green fluorescence.

[4] = tested on: sheep testicular hyaluronidase; experiment: Hyaluronidase inhibition (hyaluronic acid hydrolysis); format: biochemical; conditions: for IC50: pH 5.5, 10 minutes preincubation
Method: Hyaluronidase activity was quantitatively determined by measuring the extent of hyaluronic acid hydrolysis (i.e., the concentration of N-acetylglucosamine-reactive material formed from enzyme activity). Reaction mixtures (0.25 ml) containing the following were prepared: test compound (variable concentration); 0.1 M sodium acetate; 0.15 M sodium chloride; pH adjusted to 5.5; 7.2 units sheep testicular hyaluronidase (Sigma, Type III; H-2251) contained in an acetate buffer; 0.3 mg/ml hyaluronic acid (Sigma, from bovine vitreous humor; H-7630). The enzyme was preincubated with the test agent (1 mg/ml for screening purposes) for 10 minutes before starting the reaction by the addition of hyaluronic acid. The enzyme reaction was determined using the method of Aronson and Davidson (J. Biol. Chem. 241 437-440 (1967)). The reaction mixture was incubated for 30 minutes at room temperature. The reaction product was determined colorimetrically with p-dimethylaminobenzaldehyde (Reissig et al., J. Biol. Chem. 217 959-966 (1965)) by measuring the absorbance at 545 nm.
The reversibility of the hyaluronidase was determined by evaluating enzyme activity at different levels of enzyme (Ackermann and Potter, Proc. Soc. Exp. Biol. Med. 72 1-9 (1949)).

[5] = tested on: rabbit spermatozoa; experiment: Contraceptive effect: rabbit sperm treated before artificial insemination; format: in vivo
Method: Rabbit spermatozoa were collected and then diluted in a TALP buffer containing glucose, lactate, and pyruvate. Test compounds were dissolved in the same buffer system.

[6] = tested on: sperm; experiment: Sperm acrosomal loss; format: cell-based; conditions: 0.5 μg/ml, read-out: maximal acrosomal loss induced
[7] = tested on: Lactobacillus gasseri; experiment: Growth of normal vaginal flora bacterium in culture; format: cell-based
Method: This example illustrates the effect of the inhibitory agents of this invention on the normal vaginal flora. Lactobacillus gasseri, which is found in normal vaginal flora, was obtained from the American Type Culture Collection (Rockville, Md.) and cultured under anaerobic conditions at 37° C. in the presence of the desired test agents. Control samples without added test agents were also run. Samples were collected at twenty minute intervals starting at 120 minutes after the start of incubation through 240 minutes. The absorbance at 550 nm was used to estimate the cell density and inhibitory effects. Nonoxynol-9 was also evaluated for comparison purposes.

[8] = tested on: HSV (type 2, strain 333); experiment: Anti-HSV plaque assay on Vero cells; format: cell-based, herpes simplex virus
Method: Viral infectivity was measured by co-culturing herpes simplex virus (HSV) with Vero (African green monkey kidney) cells in phosphate-buffered solutions.
The test agent was serially diluted (0.1 μg/ml to 500 μg/ml) in phosphate-buffered saline (PBS). Each dilution was mixed with HSV (type 2, strain 333). Samples (1 ml) of each mixture were plated in triplicate on washed and drained monolayers of Vero (African green monkey kidney) cells on the bottom of […] flasks. The initial titer in each culture was determined as plaque forming units per milliliter using control cultures with no added test agents. Flasks were incubated at 37° C. for 2 hours and the medium (containing virus and test agent) removed. After washing the cells with PBS, the cells were cultured in supplemented medium 199 (Sigma Chem., cat. no. M9163) for 3 days. After culturing, the cells were stained with Giemsa and the number of viral plaques was determined by phase contrast microscopy. After correcting for dilutions, the viral titer was estimated from the number of plaques. Data were also expressed as the percentage of plaques relative to the control samples (not exposed to test agents). […] The concentration of test agent that was required to reduce the viral titer by 50 percent (IC50) was estimated with curve-fitting software from plots of plaque-forming units per milliliter against the concentration of test agent.

[9] = tested on: rabbit spermatozoa; experiment: Motility of rabbit sperm in the contraceptive test; format: cell-based; conditions: rabbit sperm in TALP buffer
Method: Rabbit spermatozoa were collected and then diluted in a TALP buffer containing glucose, lactate, and pyruvate. Test compounds were dissolved in the same buffer system. […] Female rabbits were then artificially inseminated with about 0.5 ml of buffer containing about 22.5-30×10^6 sperm. For controls (i.e., sperm and buffer containing no added contraceptive agents), fertilization averaged about 96 percent.

[10] = physchem; format: physicochemical
[11] = tested on: Neisseria gonorrhea; experiment: Bacterial multiplication assay (gonococci); format: cell-based
Method: This example illustrates the inhibitory effect for several of the inhibitory agents of this invention on Neisseria gonorrhea using a bacterial multiplication assay. Neisseria gonorrhea isolated from local uncomplicated cases of gonorrhea was verified by Gram stain, oxidase reactivity, and sugar fermentation. The titer of log-phase cultures was adjusted by dilution in GC broth to about 10^8 colony forming units per milliliter. Samples were diluted with broth containing no additives (control) and serial dilutions of the test agents (1000 μg/ml to 0.1 μg/ml). The resulting cultures were incubated at 37° C. for 4 hours. Five serial dilutions were made with GC broth; each dilution was inoculated onto GC agar plates. The inoculated plates were incubated overnight at 37° C. and the resultant gonococcal colonies were counted using bright-field microscopy.

[12] = tested on: human immunodeficiency virus (HIV-1, RF strain); experiment: microbe, parasite or virus in culture; conditions: Human immunodeficiency virus 1, read-out: kill of the virus in culture
Method: For the cell-free virus inactivation assay, HIV is added to the test agent in water and incubated for about 2 minutes. After removal of the test agent by dilution, the treated virus is added to target cells and incubated for 7 days.

[13] = tested on: MT2 cells; experiment: Cytotoxicity towards host cells of the viral binding assay; format: cell-based; conditions: at the levels of the HIV viral binding assay
Method: Serial dilutions of the test compounds (ranging from 0.1 μg/ml to 1.0 mg/ml) were added to HIV-1 virus such that 50 μl inoculum produced between 70 to 100 syncytia per well in untreated wells containing MT2 cells. The HIV-1 used was strain III, propagated in, and harvested from, a T4-lymphobastoid cell line. Each serial dilution of the test compound with virus was placed in each of three wells containing MT2 cells. The test compound alone was added to a fourth well containing MT2 cells to test for possible cytotoxicity. Triplicate virus control samples (no added test compounds but containing the equivalent amounts of the RPMI medium) were also included.

[14] = tested on: vaginal/cervical epithelial and other cells; conditions: concentrations as low as; cited from earlier work

Molecule: O=C(O)C(OC(C(=O)O)c1ccccc1)c1ccccc1 (stereo not drawn) [H2 SO4 -modified Mandelic Acid, 2,2'-diphenyl-2,2'-oxy-di-acetic acid]
- IC50 ([1]; Human immunodeficiency virus 1, HIV-1, MT2 cells): 0.3 µg/mL (≈ 0.00105 mM)
- IC100 ([1]; Human immunodeficiency virus 1, read-out: Complete Inhibition (lowest concentration at which complete inhibition occurs), HIV-1, MT2 cells): 5 µg/mL
- sperm motility [2]: did not result in the loss of sperm motility
- IC50 [3]: 0.05 µg/mL (≈ 0.000175 mM)
- reversibility of hyaluronidase inhibition ([4]; enzyme activity at different levels of enzyme): irreversible
- IC50 [4]: 8.4 µg/mL (≈ 0.0293 mM)
- fertilization (average) ([5]; 5 mg/ml added to sperm/buffer, about 15 minutes at 37° C., controls about 96 percent): about 10%
- conception ([5]; rabbit sperm treated with about 5 mg/ml prior to artificial insemination): nearly complete inhibition of conception
- Emax at 0.5 µg/mL [6]: ~70%
- effect on normal vaginal flora [7]: no apparent adverse effects
- effect on the growth of Lactobacillus ([7]; 5 mg/ml): did not have any effect; also recorded: not affected
- HSV inhibition in culture ([8]; 10 μg/ml): completely inhibited
- IC99.9 ([8]; Vero, read-out: Inhibition 3-Log (99.9 percent), concentration): 6.8 µg/mL
- IC99.99 ([8]; Vero, read-out: Inhibition 4-Log (99.99 percent), concentration): 10 µg/mL
- sperm motility [9]: did not effect sperm motility
- water solubility (in words) [10]: water soluble
- solubility ([10]; water): ~350 mg/mL (≈ 1220 mM)
- inhibition of gonococcal multiplication/growth ([11]; 100 μg/ml): completely inhibited; also recorded: complete inhibition
- IC50 ([11]; Neisseria, gonococcal multiplication, 4 hours): 15 to 17 µg/mL (≈ 0.0524 to 0.0594 mM)
- killing at 10 µg/mL [12]: ~99%

Molecule: Nonoxynol-9 [reference compound]
- IC50 [4]: inactive
- inhibition of Lactobacillus gasseri growth ([7]; 0.5 mg/ml): about 60%
- cytotoxicity towards the MT2 cells [13]: did show cytotoxic effects
- concentration that can injure cells [14]: about 0.0005%
